This note sets out measurements from patent US11591634B1, “Forecasting bacterial survival-success and adaptive evolution through multiomics stress-response mapping and machine learning” (priority 2019, dated 2023).

In brackets after ≈: the same amount, converted by molar mass.

Common to all, as to assay type: cell-based, Streptococcus pneumoniae
Assay [1] deals with S. pneumoniae strain TIGR4 (T4). Put plainly: Determination of relative minimal inhibitory concentration (MIC). The following applies: lowest concentration that abolishes bacterial growth, 16 hours, 37° C.; for MIC: Streptococcus pneumoniae, read-out: 1x MIC for T4. The protocol: (§1) Each concentration was tested in triplicate. Growth was monitored on a Tecan Infinite 200 PRO plate reader at 37° C. for 16 hours. MIC is determined as the lowest concentration that abolishes bacterial growth (FIGS. 6A-6H).

The subject of a further assay is S. pneumoniae T4. Put plainly: Fitness outcome under antibiotic exposure (growth curve assay). The conditions noted are these: for Fitness: S. pneumoniae T4 wild-type, 1xMIC antibiotic, growth curves; for Survive (real survival outcome): strain T4, Adapted FALSE. The protocol:
(§2) To test whether a gene-panel model can be trained that predicts fitness for many different conditions, a large RNA-Seq dataset was generated for the human pathogen Streptococcus pneumoniae. […] These include cell wall synthesis inhibitors (CWSI), DNA synthesis inhibitors (DSI), protein synthesis inhibitors (PSI) and RNA synthesis inhibitors ((RSI); FIG. 1A, Tables 1 & 2). Each strain was exposed to each antibiotic for 2 to 4 hours and cells were harvested for RNA-Seq at various time points. As T4 and 19F are susceptible to most antibiotics used, the transcriptional profiles in the presence of antibiotics mostly represent cases of low fitness (FIG. 1A, sensitive strain, 1xMICWT). In order to find patterns that differentiate fitness outcomes, adapted strains were generated with increased fitness in the presence of antibiotics by serial passaging wildtype T4 and 19F in the presence of increasing amounts of antibiotics. Four independent adapted populations for each strain were selected on individual antibiotics. These adapted strains could grow in the presence of antibiotic at 1.5xMIC of the wildtype strain, albeit with a small growth defect (FIGS. 6A-6E & 6F). In parallel, RNA-Seq was performed on S. pneumoniae strains D39 and T4 in a chemically defined medium, and media from which either uracil, Glycine or L-Valine was removed, which are essential for D39 but not T4. This enabled the potential identification of a common stress signature that is shared between antibiotic exposure and nutrient deprivation, and across multiple strains. Lastly, D39 was adapted to grow in the absence of each individual nutrient, after which RNA-Seq was repeated for adapted clones (Table 1 lists all 24 strains, 67 populations and 267 RNA-Seq experiments).
(§3) S. pneumoniae strain TIGR4 (T4; NC_003028.3) is a serotype 4 strain originally isolated from a patient^3,4, Taiwan-19F (19F; NC_012469.1) is a multi-drug resistant strain^5,6 and D39 (NC_008533) is a commonly used serotype 2 strain originally isolated from a patient about 90 years ago^7. Strain PG1 and PG19 were isolated from adults with pneumococcal bacteremia infection and included in the Pneumococcal Bacteremia Collection Nijmegen (PBCN)^8. All S. pneumoniae gene numbers refer to the T4 genome. Correspondence between homologous genes among S. pneumoniae strains and gene function annotations are described herewith. Escherichia coli strain AR538, Klebsiella pneumoniae strain AR497 and Salmonella enterica subsp Typhimurium strain AR635 were clinical isolates obtained from the Center of Disease Control (CDC). Staphylococcus aureus strain MN6 was kindly provided by George Sakoulas (Center of Immunity, Infection & Inflammation, UCSD School of Medicine). Unless otherwise specified, S. pneumoniae strains were cultivated in Todd Hewitt medium with 5% yeast extract (THY) with 5 μL/mL oxyrase (Oxyrase, Inc) or on sheep's blood agar plates (Northeastern Laboratories) at 37° C. with 5% CO2. A. baumannii, E. coll. K. pneumoniae, S. aureus and S. Typhimurium were cultured in Mueller Hinton broth II (Sigma) at 37° C. with 220 rpm constant shaking. Tn-Seq and RNA-Seq experiments of S. pneumoniae under nutrient-depletion and antibiotic conditions were performed in chemically defined medium (CDM)^9 and semi-defined minimal medium (SDMM)^10, respectively. RNA-Seq experiments for A. baumannii, S. Typhimurium, E. coll. K. pneumoniae, and S. aureus were performed in Mueller Hinton broth II. Single strain growth assays were performed at least three times using 96-well plates by taking OD600 measurements on a Tecan Infinite 200 PRO plate reader.

The subject of assay [2] is S. pneumoniae strain Taiwan-19F (19F). Nature of the assay: Determination of relative minimal inhibitory concentration (MIC). The following applies: for MIC: Streptococcus pneumoniae, 16 h, read-out: 1x MIC for 19F. The protocol: as §1
The test system of another assay is S. pneumoniae 19F. Nature of the assay: Fitness outcome under antibiotic exposure (growth curve assay). The following applies: for Fitness: S. pneumoniae 19F wild-type, growth curves; for Survive (real survival outcome): strain 19F, Adapted FALSE. The protocol: as §2, §3
The subject of another assay is S. pneumoniae strain D39. Nature of the assay: Real survival outcome (fitness outcome) under nutrient condition. The conditions noted are these: strain D39, Adapted FALSE, Concentration NA.
In assay [3] the test system is adapted S. pneumoniae strain D39. Put plainly: Real survival outcome (fitness outcome) under nutrient condition, adapted strain. The following applies: strain D39, Adapted TRUE, Concentration NA.
For assay [4], the system named is antibiotic-adapted S. pneumoniae 19F (a19F). Nature of the assay: Fitness outcome under antibiotic exposure (growth curve assay). The following applies: for Fitness: a19F, 19F adapted to the respective antibiotic, 1xMIC and 1.5-2xMIC, growth curves; for Survive (real survival outcome): strain 19F, Adapted TRUE. As for the experimental part: as §2, §3
(§4) D39 was used as the parental strain in nutrient-depletion evolution experiments; T4 and 19F were used as parental strains in antibiotic evolution experiments. […] Four replicate populations were serial passaged in CDM or SDMM as controls to identify background adaptations in nutrient or antibiotic adaptation experiments, respectively. […]

Assay [5] relates to antibiotic-adapted S. pneumoniae T4 (aT4). The assay is described as above. The following applies: for Survive (real survival outcome): strain T4, Adapted TRUE. As for the experimental part: as §2, §3, §4

What is called MIC is the smallest concentration in the dilution series that meets the test's criterion for growth inhibition. Regarding `CC1(C)S[C@@H]2[C@H](NC(=O)[C@H](N)c3ccc(O)cc3)C(=O)N2[C@H]1C(=O)O` [Amoxicillin, amoxicillin], the MIC in assay [1] worked out at 0.12 µg/mL (≈ 0.328 µM). The Fitness entry in the assay on S. pneumoniae T4 is “Low”. Further, the “Survive (real survival outcome)” value with S. pneumoniae T4 (Concentration NA) is recorded as “FALSE”.
Consider `CO/N=C(\C(=O)N[C@@H]1C(=O)N2C(C(=O)[O-])=C(C[N+]3(C)CCCC3)CS[C@H]12)c1csc(N)n1` [Cefepime, cefepime], for which the minimum inhibitory concentration (MIC) turned out to be 0.8 µg/mL (≈ 1.66 µM) in assay [1] and 2.2 µg/mL (≈ 4.58 µM) in assay [2]. Further, the Fitness entry with S. pneumoniae 19F was “Low, and High”; with S. pneumoniae T4, “Low”. The “Survive (real survival outcome)” value in the assay on S. pneumoniae 19F (Concentration H (high)) was “FALSE”; in the assay on S. pneumoniae 19F (Concentration L (low)), “TRUE”; in the assay on S. pneumoniae T4 (Concentration L (low)), “FALSE”.
On to `CO/N=C(\C(=O)N[C@@H]1C(=O)N2C(C(=O)O)=C(CSc3nc(=O)c(=O)[nH]n3C)CS[C@H]12)c1csc(N)n1` [Ceftriaxone, ceftriaxone], for which the MIC in assay [1] is 0.007 µg/mL (≈ 0.0126 µM). Moreover, the Fitness result in the assay with S. pneumoniae T4 is “Low”. In the assay with S. pneumoniae T4 (Concentration NA), the “Survive (real survival outcome)” value is given as “FALSE”.
With `CCCCCCCCCC(=O)N[C@@H](Cc1c[nH]c2ccccc12)C(=O)N[C@H](CC(N)=O)C(=O)N[C@@H](CC(=O)O)C(=O)N[C@@H]1C(=O)NCC(=O)N[C@@H](CCCN)C(=O)N[C@@H](CC(=O)O)C(=O)N[C@H](C)C(=O)N[C@@H](CC(=O)O)C(=O)NCC(=O)N[C@H](CO)C(=O)N[C@@H]([C@H](C)CC(=O)O)C(=O)N[C@@H](CC(=O)c2ccccc2N)C(=O)O[C@@H]1C` [Daptomycin, daptomycin], the MIC in assay [1] and in assay [2] was 35 µg/mL (≈ 21.6 µM) throughout. Also, the Fitness result in the assay on S. pneumoniae 19F and with S. pneumoniae T4 was “Low” in each case. The “Survive (real survival outcome)” value in the assay on S. pneumoniae 19F (Concentration L (low)) and with S. pneumoniae T4 (Concentration L (low)) was “FALSE” each time.
On to `NCC(=O)O` [GLY], for which the “Survive (real survival outcome)” value with S. pneumoniae T4 (Concentration NA) is reported as “TRUE”; in the assay on S. pneumoniae strain D39 it was “FALSE”.
As to `C[C@@H](O)[C@H]1C(=O)N2C(C(=O)O)=C(SCCN=CN)C[C@H]12` [Imipenem, imipenem], the MIC in assay [1] is 0.03 µg/mL (≈ 0.1 µM).
In the case of `NC[C@H]1O[C@H](O[C@H]2[C@H](O)[C@@H](O[C@H]3O[C@H](CO)[C@@H](O)[C@H](N)[C@H]3O)[C@H](N)C[C@@H]2N)[C@H](O)[C@@H](O)[C@@H]1O` [Kanamycin, kanamycin], the MIC in assay [1] and in assay [2] was 90 µg/mL (≈ 186 µM) each time.
Take `C[C@H]1COc2c(N3CCN(C)CC3)c(F)cc3c(=O)c(C(=O)O)cn1c23` [Levofloxacin, levofloxacin]: the MIC in assay [1] is 1 µg/mL (≈ 2.77 µM); in assay [2], 1.1 µg/mL (≈ 3.04 µM).
`CC(=O)NC[C@H]1CN(c2ccc(N3CCOCC3)c(F)c2)C(=O)O1` [Linezolid, linezolid]: in assay [1], the MIC came out at 0.5 µg/mL (≈ 1.48 µM). In the assay on S. pneumoniae T4, the Fitness entry is recorded as “Low”. For the same molecule, the “Survive (real survival outcome)” value in the assay on S. pneumoniae T4 (Concentration NA) is listed as “FALSE”.
In the case of `COc1c(N2C[C@@H]3CCCN[C@@H]3C2)c(F)cc2c(=O)c(C(=O)O)cn(C3CC3)c12` [Moxifloxacin, moxifloxacin], the MIC in assay [1] was found to be 0.45 µg/mL (≈ 1.12 µM).
As to `CO[C@H]1/C=C/O[C@@]2(C)Oc3c(C)c(O)c4c(O)c(c(/C=N/N5CCN(C)CC5)c(O)c4c3C2=O)NC(=O)/C(C)=C\C=C\[C@H](C)[C@H](O)[C@@H](C)[C@@H](O)[C@@H](C)[C@H](OC(C)=O)[C@@H]1C` [Rifampicin, rifampicin], the MIC in assay [1] and in assay [2] was 0.035 µg/mL (≈ 0.0425 µM) throughout.
As for `CN(C)[C@@H]1C(O)=C(C(N)=O)C(=O)[C@@]2(O)C(O)=C3C(=O)c4c(O)cccc4[C@@](C)(O)[C@H]3C[C@@H]12` [Tetracycline, tetracycline], the MIC in assay [1] stood at 8 µg/mL (≈ 18 µM); in assay [2], 22 µg/mL (≈ 49.5 µM).
As for `NC[C@H]1O[C@H](O[C@H]2[C@H](O)[C@@H](O[C@H]3O[C@H](CO)[C@@H](O)[C@H](N)[C@H]3O)[C@H](N)C[C@@H]2N)[C@H](N)C[C@@H]1O` [Tobramycin, tobramycin], the MIC in assay [1] was 175 µg/mL (≈ 374 µM). Besides, in the assay on S. pneumoniae T4, the Fitness result was “Low”. Also, the “Survive (real survival outcome)” value in the assay with S. pneumoniae T4 (Concentration NA) was “FALSE”.
In the case of `O=c1cc[nH]c(=O)[nH]1` [URA], the “Survive (real survival outcome)” value is reported as “TRUE” in the assay on S. pneumoniae T4 (Concentration NA), “FALSE” in the assay with S. pneumoniae strain D39 and “TRUE” in assay [3].
Take `CC(C)[C@H](N)C(=O)O` [VAL]: the “Survive (real survival outcome)” value in the assay with S. pneumoniae T4 (Concentration NA) is reported as “TRUE”; in the assay with S. pneumoniae strain D39, “FALSE”; in assay [3], “TRUE”.
As to `CN[C@H](CC(C)C)C(=O)N[C@H]1C(=O)N[C@@H](CC(N)=O)C(=O)N[C@H]2C(=O)N[C@H]3C(=O)N[C@H](C(=O)N[C@H](C(=O)O)c4cc(O)cc(O)c4-c4cc3ccc4O)[C@H](O)c3ccc(c(Cl)c3)Oc3cc2cc(c3O[C@@H]2O[C@H](CO)[C@@H](O)[C@H](O)[C@H]2O[C@H]2C[C@](C)(N)[C@H](O)[C@H](C)O2)Oc2ccc(cc2Cl)[C@H]1O` [Vancomycin, vancomycin], the minimum inhibitory concentration (MIC) in assay [1] and in assay [2] was 0.24 µg/mL (≈ 0.166 µM) in each case. The Fitness result is “Low” with S. pneumoniae 19F; “Low” with S. pneumoniae T4; “High” in assay [4]; “High” in assay [5] (aT4, T4 adapted to the respective antibiotic, 1xMIC and 1.5-2xMIC, growth curves). Further, the “Survive (real survival outcome)” value in the assay with S. pneumoniae 19F (Concentration L (low)) is “FALSE”; in the assay on S. pneumoniae T4 (Concentration L (low)), “FALSE”; in assay [4] (Concentration H (high)), “TRUE”; in assay [4] (Concentration L (low)), “TRUE”; in assay [5] (Concentration H (high)), “TRUE”; in assay [5] (Concentration L (low)) it was “TRUE”.
cotrimoxazole: the “1x MIC for T4” value in assay [1] came to 6.5 µg/mL. Also, the Fitness entry in the assay on S. pneumoniae T4 is “Low”. Besides, in the assay with S. pneumoniae T4 (Concentration NA), the “Survive (real survival outcome)” value is listed as “FALSE”.
For the molecule penicillin, the “1x MIC for T4” value in assay [1] is 0.03 µg/mL. Moreover, the “1x MIC for 19F” value in assay [2] (S. pneumoniae 19F, lowest concentration that abolishes bacterial growth, 16 hours, 37° C.) was determined as 2.25 µg/mL. Also, the Fitness entry in the assay on S. pneumoniae 19F is reported as “High”; with S. pneumoniae T4 it was “Low”; in assay [4] it was “High”. Besides, the “Survive (real survival outcome)” value in the assay with S. pneumoniae 19F (Concentration L (low)) is “TRUE”; with S. pneumoniae T4 (Concentration L (low)), “FALSE”; in assay [5] (Concentration H (high)), “TRUE”; in assay [5] (Concentration L (low)), “TRUE”.
